Legend:
Assay type in all cases: in vivo
Conditions in all cases: wettable powder applied 3 days after transplanting, judged after 25 days
Cyperus serotinus = experiment: Test Example 1: herbicidal effects, paddy-field pot test
Method in brief: (§1)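 First, paddy soil was potted and seeded at the surface layer with non-dormant weed seeds; germinated Cyperus serotinus tubers were planted and 2.2-leaf rice transplanted. Three days later, diluted wettable powder was applied under flooding. Inhibition was rated 0–5 after 25 days.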

Scirpus joncoides = experiment: as above
Method in brief: as §1

[1] = system: annual broad-leaved weeds (Lindernia spp., Rotala indica); experiment: as above
Method in brief: as §1

[2] = system: barnyardgrass (Echinochloa oryzicola Vasing.); experiment: as above
Method in brief: as §1

[3] = system: transplanted paddy-field rice; experiment: Test Example 1: crop injury against transplanted paddy-field rice
Method in brief: as §1

SMILES | Herbicidal effects Cyperus serotinus (Cyperus serotinus; chemical dosage 10 g/a) | Herbicidal effects Cyperus serotinus (Cyperus serotinus; chemical dosage 20 g/a) | Herbicidal effects Scirpus joncoides (Scirpus joncoides; chemical dosage 10 g/a) | Herbicidal effects Scirpus joncoides (Scirpus joncoides; chemical dosage 20 g/a) | Herbicidal effects Broad leaf ([1]; chemical dosage 10 g/a) | Herbicidal effects Broad leaf ([1]; chemical dosage 20 g/a) | Herbicidal effects Barnyard grass ([2]; chemical dosage 10 g/a) | Herbicidal effects Barnyard grass ([2]; chemical dosage 20 g/a) | Crop injury against transplanted rice ([3]; chemical dosage 10 g/a) | Crop injury against transplanted rice ([3]; chemical dosage 20 g/a) | Herbicidal effects Cyperus serotinus (Cyperus serotinus; chemical dosage 12.5 g/a) | Herbicidal effects Cyperus serotinus (Cyperus serotinus; chemical dosage 25 g/a) | Herbicidal effects Scirpus joncoides (Scirpus joncoides; chemical dosage 12.5 g/a) | Herbicidal effects Scirpus joncoides (Scirpus joncoides; chemical dosage 25 g/a) | Herbicidal effects Broad leaf ([1]; chemical dosage 12.5 g/a) | Herbicidal effects Broad leaf ([1]; chemical dosage 25 g/a) | Herbicidal effects Barnyard grass ([2]; chemical dosage 12.5 g/a) | Herbicidal effects Barnyard grass ([2]; chemical dosage 25 g/a) | Crop injury against transplanted rice ([3]; chemical dosage 12.5 g/a) | Crop injury against transplanted rice ([3]; chemical dosage 25 g/a)
Oc1cc(Cl)nnc1Oc1cccc2c1OCO2 [Example 192] | 5 (Growth inhibition rate; 91 to 100%) | 5 (Growth inhibition rate; 91 to 100%) | 5 (Growth inhibition rate; 91 to 100%) | 5 (Growth inhibition rate; 91 to 100%) | 2 (Growth inhibition rate; 31 to 50%) | 3 (Growth inhibition rate; 51 to 70%) | 2 (Growth inhibition rate; 31 to 50%) | 5 (Growth inhibition rate; 91 to 100%) | 0 (Growth inhibition rate; 0 to 10%) | 1 (Growth inhibition rate; 11 to 30%) |  |  |  |  |  |  |  |  |  | 
Cc1ccc(Cl)c(Oc2nnc(Cl)cc2O)c1 [Example 203] |  |  |  |  |  |  |  |  |  |  | 5 (Growth inhibition rate; 91 to 100%) | 5 (Growth inhibition rate; 91 to 100%) | 5 (Growth inhibition rate; 91 to 100%) | 5 (Growth inhibition rate; 91 to 100%) | 5 (Growth inhibition rate; 91 to 100%) | 5 (Growth inhibition rate; 91 to 100%) | 1 (Growth inhibition rate; 11 to 30%) | 2 (Growth inhibition rate; 31 to 50%) | 0 (Growth inhibition rate; 0 to 10%) | 0 (Growth inhibition rate; 0 to 10%)
Cc1ccc(Cl)cc1Oc1nnc(Cl)cc1O [Example 204] |  |  |  |  |  |  |  |  |  |  | 5 (Growth inhibition rate; 91 to 100%) | 5 (Growth inhibition rate; 91 to 100%) | 5 (Growth inhibition rate; 91 to 100%) | 5 (Growth inhibition rate; 91 to 100%) | 5 (Growth inhibition rate; 91 to 100%) | 5 (Growth inhibition rate; 91 to 100%) | 2 (Growth inhibition rate; 31 to 50%) | 2 (Growth inhibition rate; 31 to 50%) | 0 (Growth inhibition rate; 0 to 10%) | 0 (Growth inhibition rate; 0 to 10%)
Cc1ccc(C)c(Oc2nnc(Cl)cc2O)c1 [Example 205] |  |  |  |  |  |  |  |  |  |  | 5 (Growth inhibition rate; 91 to 100%) | 5 (Growth inhibition rate; 91 to 100%) | 5 (Growth inhibition rate; 91 to 100%) | 5 (Growth inhibition rate; 91 to 100%) | 5 (Growth inhibition rate; 91 to 100%) | 5 (Growth inhibition rate; 91 to 100%) | 0 (Growth inhibition rate; 0 to 10%) | 1 (Growth inhibition rate; 11 to 30%) | 0 (Growth inhibition rate; 0 to 10%) | 0 (Growth inhibition rate; 0 to 10%)
Cc1ccc(C(C)C)c(Oc2nnc(Cl)cc2O)c1 [Example 212] |  |  |  |  |  |  |  |  |  |  | 5 (Growth inhibition rate; 91 to 100%) | 5 (Growth inhibition rate; 91 to 100%) | 5 (Growth inhibition rate; 91 to 100%) | 5 (Growth inhibition rate; 91 to 100%) | 5 (Growth inhibition rate; 91 to 100%) | 5 (Growth inhibition rate; 91 to 100%) | 1 (Growth inhibition rate; 11 to 30%) | 2 (Growth inhibition rate; 31 to 50%) | 0 (Growth inhibition rate; 0 to 10%) | 0 (Growth inhibition rate; 0 to 10%)
Oc1cc(Cl)nnc1Oc1cc(F)ccc1C1CC1 [Example 216] | 5 (Growth inhibition rate; 91 to 100%) | 5 (Growth inhibition rate; 91 to 100%) | 5 (Growth inhibition rate; 91 to 100%) | 5 (Growth inhibition rate; 91 to 100%) | 5 (Growth inhibition rate; 91 to 100%) | 5 (Growth inhibition rate; 91 to 100%) | 4 (Growth inhibition rate; 71 to 90%) | 4 (Growth inhibition rate; 71 to 90%) | 0 (Growth inhibition rate; 0 to 10%) | 2 (Growth inhibition rate; 31 to 50%) |  |  |  |  |  |  |  |  |  | 
Oc1cc(Cl)nnc1Oc1cc(Cl)ccc1C1CC1 [Example 217] | 5 (Growth inhibition rate; 91 to 100%) | 5 (Growth inhibition rate; 91 to 100%) | 5 (Growth inhibition rate; 91 to 100%) | 5 (Growth inhibition rate; 91 to 100%) | 5 (Growth inhibition rate; 91 to 100%) | 5 (Growth inhibition rate; 91 to 100%) | 2 (Growth inhibition rate; 31 to 50%) | 4 (Growth inhibition rate; 71 to 90%) | 0 (Growth inhibition rate; 0 to 10%) | 0 (Growth inhibition rate; 0 to 10%) |  |  |  |  |  |  |  |  |  | 
Cc1ccc(C2CC2)c(Oc2nnc(Cl)cc2O)c1 [Example 218] | 5 (Growth inhibition rate; 91 to 100%) | 5 (Growth inhibition rate; 91 to 100%) | 5 (Growth inhibition rate; 91 to 100%) | 5 (Growth inhibition rate; 91 to 100%) | 5 (Growth inhibition rate; 91 to 100%) | 5 (Growth inhibition rate; 91 to 100%) | 0 (Growth inhibition rate; 0 to 10%) | 1 (Growth inhibition rate; 11 to 30%) | 0 (Growth inhibition rate; 0 to 10%) | 0 (Growth inhibition rate; 0 to 10%) |  |  |  |  |  |  |  |  |  | 
Oc1cc(Cl)nnc1Oc1c(F)cccc1Cl [Example 232] | 4 (Growth inhibition rate; 71 to 90%) | 5 (Growth inhibition rate; 91 to 100%) | 3 (Growth inhibition rate; 51 to 70%) | 4 (Growth inhibition rate; 71 to 90%) | 5 (Growth inhibition rate; 91 to 100%) | 5 (Growth inhibition rate; 91 to 100%) | 4 (Growth inhibition rate; 71 to 90%) | 4 (Growth inhibition rate; 71 to 90%) | 0 (Growth inhibition rate; 0 to 10%) | 0 (Growth inhibition rate; 0 to 10%) |  |  |  |  |  |  |  |  |  | 
Oc1cc(Cl)nnc1Oc1c(F)cccc1Br [Example 233] | 4 (Growth inhibition rate; 71 to 90%) | 5 (Growth inhibition rate; 91 to 100%) | 3 (Growth inhibition rate; 51 to 70%) | 5 (Growth inhibition rate; 91 to 100%) | 4 (Growth inhibition rate; 71 to 90%) | 5 (Growth inhibition rate; 91 to 100%) | 3 (Growth inhibition rate; 51 to 70%) | 4 (Growth inhibition rate; 71 to 90%) | 0 (Growth inhibition rate; 0 to 10%) | 0 (Growth inhibition rate; 0 to 10%) |  |  |  |  |  |  |  |  |  | 
CCCc1cccc(F)c1Oc1nnc(Cl)cc1O [Example 234] |  |  |  |  |  |  |  |  |  |  | 5 (Growth inhibition rate; 91 to 100%) | 5 (Growth inhibition rate; 91 to 100%) | 3 (Growth inhibition rate; 51 to 70%) | 4 (Growth inhibition rate; 71 to 90%) | 5 (Growth inhibition rate; 91 to 100%) | 5 (Growth inhibition rate; 91 to 100%) | 0 (Growth inhibition rate; 0 to 10%) | 0 (Growth inhibition rate; 0 to 10%) | 0 (Growth inhibition rate; 0 to 10%) | 0 (Growth inhibition rate; 0 to 10%)
CC(C)c1cccc(F)c1Oc1nnc(Cl)cc1O [Example 235] | 5 (Growth inhibition rate; 91 to 100%) | 5 (Growth inhibition rate; 91 to 100%) | 5 (Growth inhibition rate; 91 to 100%) | 5 (Growth inhibition rate; 91 to 100%) | 5 (Growth inhibition rate; 91 to 100%) | 5 (Growth inhibition rate; 91 to 100%) | 3 (Growth inhibition rate; 51 to 70%) | 3 (Growth inhibition rate; 51 to 70%) | 0 (Growth inhibition rate; 0 to 10%) | 0 (Growth inhibition rate; 0 to 10%) |  |  |  |  |  |  |  |  |  | 
COc1cccc(F)c1Oc1nnc(Cl)cc1O [Example 239] |  | 4 (Growth inhibition rate; 71 to 90%) |  | 5 (Growth inhibition rate; 91 to 100%) |  | 5 (Growth inhibition rate; 91 to 100%) |  | 0 (Growth inhibition rate; 0 to 10%) |  | 0 (Growth inhibition rate; 0 to 10%) |  |  |  |  |  |  |  |  |  | 
